Measurements as given in patent US9919998B2, “Antibacterial agents: Nα-aroyl-N-aryl-phenylalaninamides” (priority 2014, dated 2018).
≈ marks a conversion by molar mass, not a printed value.

Assays:
[1] = test system: Mycobacterium avium ATCC 25291; test: Microplate Alamar Blue assay (MABA) MIC, M. avium; format: cell-based; conditions: ATCC25291, M. avium ATCC 25291
From the text: (§1) Minimal inhibitory concentrations (MICs) in Mycobacterium tuberculosis H37Rv and Mycobacterium avium ATCC 25291 were quantified using microplate Alamar Blue assays as described (MABA; [Collins, L. & Franzblau, S. (1997) Microplate Alamar Blue assay versus BACTEC 460 system for high-throughput screening of compounds against Mycobacterium tuberculosis and Mycobacterium avium. Antimicrob. Agents Chemother. 41, 1004-1009]).

[2] = test system: Mycobacterium tuberculosis H37Rv; test: Microplate Alamar Blue assay (MABA) MIC, M. tuberculosis; format: cell-based; conditions: read-out: MIC Mycobacterium tuberculosis H37Rv
From the text: as §1

[3] = test system: Vero E6 ATCC CRL1586 cells; test: Mammalian-cell cytotoxicity, minimal cytotoxic concentration (CellTiter96); format: cell-based
Protocol: Minimal cytotoxic concentrations (MCCs) against mammalian cells in culture were determined using Vero E6 ATCC CRL1586 cells and the CellTiter96 assay kit (Promega, Inc.). […]

[4] = test system: rifampin-resistant mutants, derivatives of M. smegmatis ATCC19420; test: MICs in rifampin-resistant mutants (cross-resistance levels); format: cell-based, Mycobacterium smegmatis
From the text: (§2) MICs in Mycobacterium smegmatis ATCC 19420 and Mycobacterium smegmatis ATCC 19420 derivatives were quantified using broth microdilution assays as described [Clinical and Laboratory Standards Institute (CLSI/NCCLS) (2009) Methods for Dilution Antimicrobial Susceptibility Tests for Bacteria That Grow Aerobically; Approved Standard, Eighth Edition. CLIS Document M07-A8 (CLIS, Wayne Pa.)].

[5] = test system: Mycobacterium smegmatis ATCC 19420; test: Broth microdilution MIC, M. smegmatis; format: cell-based; conditions: Mycolicibacterium smegmatis, ATCC19420, M. smegmatis ATCC 19420; read-out: MIC Mycobacterium smegmatis ATCC 19420
From the text: as §2

Row | SMILES | MIC [1] | MIC [2] | MCC mammalian cells Vero E6 ATCC CRL1586 [3] | cross-resistance of rifampin-resistant mutants to the compound [4] | MIC [5]
1 | COc1ccccc1NC(=O)C(Cc1ccccc1)NC(=O)c1ccccc1 (centres unmarked) [I-17] | 6.25 µg/mL (≈ 16.7 µM) | 3.13 µg/mL (≈ 8.36 µM) | >37 µg/mL | No rifampin-resistant mutant was found to exhibit cross-resistance | 0.39 µg/mL (≈ 1.04 µM)
2 | COc1ccccc1C(=O)NC(Cc1ccccc1)C(=O)Nc1ccccc1C (centres unmarked) [I-25] |  | > 50 µg/mL | 57 µg/mL | No rifampin-resistant mutant was found to exhibit cross-resistance | 6.25 µg/mL (≈ 16.1 µM)
3 | CCCOc1ccccc1NC(=O)C(Cc1ccccc1)NC(=O)c1ccccc1 (centres unmarked) [I-39] | > 50 µg/mL | 6.25 µg/mL (≈ 15.5 µM) | 20 µg/mL | No rifampin-resistant mutant was found to exhibit cross-resistance | 0.78 µg/mL (≈ 1.94 µM)
4 | Cc1ccccc1NC(=O)C(Cc1ccccc1)NC(=O)c1ccccc1Cl (centres unmarked) [I-91] | > 50 µg/mL | > 50 µg/mL | 19 µg/mL | No rifampin-resistant mutant was found to exhibit cross-resistance | 0.39 µg/mL (≈ 0.993 µM)
5 | Cc1ccc(Br)cc1NC(=O)C(Cc1ccccc1)NC(=O)c1ccccc1 (centres unmarked) [I-97] | > 50 µg/mL | 25 µg/mL (≈ 57.2 µM) |  | No rifampin-resistant mutant was found to exhibit cross-resistance | 0.78 µg/mL (≈ 1.78 µM)
6 | Cc1ccccc1NC(=O)C(Cc1ccccc1)NC(=O)c1ccccc1Br (centres unmarked) [I-102] |  | > 50 µg/mL | 29 µg/mL | No rifampin-resistant mutant was found to exhibit cross-resistance | 3.12 µg/mL (≈ 7.15 µM)
7 | Cc1ccccc1NC(=O)C(Cc1ccccc1)NC(=O)c1ccccc1C (centres unmarked) [I-112] | > 50 µg/mL | > 50 µg/mL | 13 µg/mL | No rifampin-resistant mutant was found to exhibit cross-resistance | 0.39 µg/mL (≈ 1.05 µM)
8 | CCc1ccccc1NC(=O)C(Cc1ccccc1)NC(=O)c1ccccc1 (centres unmarked) [I-115] | > 50 µg/mL | > 50 µg/mL | 37 µg/mL | No rifampin-resistant mutant was found to exhibit cross-resistance | 0.39 µg/mL (≈ 1.05 µM)
9 | Cc1c(NC(=O)C(Cc2ccccc2)NC(=O)c2ccccc2)cccc1C(F)(F)F (centres unmarked) [I-160] | > 50 µg/mL | > 50 µg/mL | 21 µg/mL | No rifampin-resistant mutant was found to exhibit cross-resistance | 3.12 µg/mL (≈ 7.33 µM)
10 | Cc1ccccc1NC(=O)C(Cc1ccc(OC(=O)c2ccccc2)cc1)NC(=O)c1ccccc1 (centres unmarked) [I-236, 4-(2-benzamido-3-oxo-3-(o-tolylamino)propyl)phenyl benzoate] |  | 25 µg/mL (≈ 52.2 µM) | >48 µg/mL | No rifampin-resistant mutant was found to exhibit cross-resistance | 0.39 µg/mL (≈ 0.815 µM)
11 | Cc1ncccc1NC(=O)C(Cc1ccccc1)NC(=O)c1ccccc1 (centres unmarked) [II-5] | > 50 µg/mL | 50 µg/mL (≈ 139 µM) | >36 µg/mL | No rifampin-resistant mutant was found to exhibit cross-resistance | 3.12 µg/mL (≈ 8.68 µM)
12 | Cc1ccccc1NC(=O)C(Cc1ccccc1)NC(=O)c1ccccn1 (centres unmarked) [II-12] | 50 µg/mL (≈ 139 µM) | 25 µg/mL (≈ 69.6 µM) | >36 µg/mL | No rifampin-resistant mutant was found to exhibit cross-resistance | 3.12 µg/mL (≈ 8.69 µM)
13 | Cc1ccccc1NC(=O)C(Cc1ccccc1)NC(=O)c1cccnc1 (centres unmarked) [II-13] |  | > 50 µg/mL | >36 µg/mL | No rifampin-resistant mutant was found to exhibit cross-resistance | 6.25 µg/mL (≈ 17.4 µM)
14 | O=C(NC(Cc1ccccc1)C(=O)Nc1cccc2cc[nH]c12)c1ccccc1 (centres unmarked) [II-28] | > 50 µg/mL | 12.5 µg/mL (≈ 32.6 µM) | 13 µg/mL | No rifampin-resistant mutant was found to exhibit cross-resistance | 0.78 µg/mL (≈ 2.03 µM)
15 | Cc1ccccc1NC(=O)C(Cc1ccccc1)NC(=O)c1cccc2[nH]ccc12 (centres unmarked) [II-39] | 12.5 µg/mL (≈ 31.4 µM) | 12.5 µg/mL (≈ 31.4 µM) | 36 µg/mL | No rifampin-resistant mutant was found to exhibit cross-resistance | 0.39 µg/mL (≈ 0.981 µM)
16 | O=C(NC(Cc1ccccc1)C(=O)Nc1cccc2cccnc12)c1ccccc1 (centres unmarked) [IX-2, N-(1-oxo-3-phenyl-1-(quinolin-8-ylamino)propan-2-yl)benzamide] | > 50 µg/mL | > 39 µg/mL | >39 µg/mL | No rifampin-resistant mutant was found to exhibit cross-resistance | 3.12 µg/mL (≈ 7.9 µM)
17 | O=C(NC(Cc1ccccc1)C(=O)Nc1cccc2cnccc12)c1ccccc1 (centres unmarked) [IX-3, N-(1-(isoquinolin-5-ylamino)-1-oxo-3-phenylpropan-2-yl)benzamide] | 6.25 µg/mL (≈ 15.8 µM) | 3.13 µg/mL (≈ 7.91 µM) | >40 µg/mL | No rifampin-resistant mutant was found to exhibit cross-resistance | 0.195 µg/mL (≈ 0.493 µM)
18 | O=C(NC(Cc1ccccc1)C(=O)Nc1cccc2ncccc12)c1ccccc1 (centres unmarked) [IX-4, N-(1-oxo-3-phenyl-1-(quinolin-5-ylamino)propan-2-yl)benzamide] | > 50 µg/mL | 12.5 µg/mL (≈ 31.6 µM) | >40 µg/mL | No rifampin-resistant mutant was found to exhibit cross-resistance | 0.78 µg/mL (≈ 1.97 µM)
19 | O=C(NC(Cc1ccccc1)C(=O)Nc1cccc2c1OCCO2)c1ccccc1 (centres unmarked) [IX-5, N-(1-((2,3-dihydrobenzo[b][1,4]dioxin-5-yl)amino)-1-oxo-3-phenylpropan-2-yl)benzamide] | 6.25 µg/mL (≈ 15.5 µM) | 6.25 µg/mL (≈ 15.5 µM) | >40 µg/mL | No rifampin-resistant mutant was found to exhibit cross-resistance | 0.39 µg/mL (≈ 0.969 µM)
20 | O=C(NC(Cc1ccc(O)cc1)C(=O)Nc1cccc2c1CCC2)c1ccccc1 (centres unmarked) [IX-14, N-(1-((2,3-dihydro-1H-inden-4-yl)amino)-3-(4-hydroxyphenyl)-1-oxopropan-2-yl)benzamide] | 12.5 µg/mL (≈ 31.2 µM) | 6.25 µg/mL (≈ 15.6 µM) | >40 µg/mL | No rifampin-resistant mutant was found to exhibit cross-resistance | 0.39 µg/mL (≈ 0.974 µM)
21 | Cc1ccccc1C(=O)NC(Cc1ccccc1)C(=O)Nc1cccc2nc[nH]c12 (centres unmarked) [IX-281, N-(1-((1H-benzo[d]imidazol-7-yl)amino)-1-oxo-3-phenylpropan-2-yl)-2-methylbenzamide] | 12.5 µg/mL (≈ 31.4 µM) | 12.5 µg/mL (≈ 31.4 µM) | 92 µg/mL |  | 0.78 µg/mL (≈ 1.96 µM)
22 | Cc1ccccc1C(=O)NC(Cc1ccccc1)C(=O)Nc1cccc2c1cnn2C (centres unmarked) [IX-297, 2-methyl-N-(1-((1-methyl-1H-indazol-4-yl)amino)-1-oxo-3-phenyl-propan-2-yl)benzamide] | 12.5 µg/mL (≈ 30.3 µM) | 12.5 µg/mL (≈ 30.3 µM) | >100 µg/mL |  | 0.78 µg/mL (≈ 1.89 µM)
23 | CC(=O)N1CCCN(c2ccc(F)cc2NC(=O)C(Cc2ccccc2)NC(=O)c2ccccc2F)CC1 (centres unmarked) [IX-319, N-(1-((2-(4-acetyl-1,4-diazepan-1-yl)-5-fluorophenyl)amino)-1-oxo-3-phenylpropan-2-yl)-2-fluorobenzamide] | 6.25 µg/mL (≈ 12 µM) | 3.12 µg/mL (≈ 6 µM) | >100 µg/mL |  | 0.39 µg/mL (≈ 0.749 µM)
